Data from patent publication US20250041479A1, “PHOTO-ENZYMATIC PRINTING” (The Board of Trustees of the Leland Stanford Junior …, priority 2021, published 2025).

Assays:
Type in all cases: physicochemical
[1] = Durability of the Razo cis-trans interconversion; settings: blue then UV to photostationary states, repeated 15 times
Procedure: (§1) Razo as a stock solution of 70 mM in DMSO was diluted to 25 μM Razo in buffer (20 mM Tris-HCl, pH 7.4, 40 mM KCl). Absorbance spectra were acquired on a PerkinElmer UV-Vis spectrometer and sample illumination light was from a Lumencor Aura light engine, with a Blue light output centered on 475 nm with 28 nm bandpass filter and UV light output centered on 360 nm with a 28 nm bandpass filter. cis-Razo and trans-Razo Absorbance spectra shapes agreed with those from the paper where Razo was originally developed (Wang, et al. Angew. Chem., Int. Ed. 2010, 49, 5305). We aimed to characterize several features of the isomerization that are relevant to inform printing parameters for patterning of the substrate: light kinetics, dark kinetics, and durability.
Blue light was applied until the trans-dominated photostationary state was reached (blue curve in FIG. 5). Then UV light was applied until the cis-dominated photostationary state was reached (purple curve in FIG. 5).

[2] = Razo cis-trans conversion using light (UV-Vis absorbance spectra)
Procedure: as §1
After a long Blue (referred to as ‘visible’ in legend) light exposure to drive Razo to a trans dominated photostationary state, the amount of UV light necessary to drive Razo to the cis dominated photostationary state was determined to be roughly 10 seconds at 25% power (approximately 15 mW/cm^2).
After a long UV light exposure to drive Razo to a cis dominated photostationary state, the amount of Blue light necessary to drive Razo to the trans dominated photostationary state was determined to be roughly 10 seconds at 50% power (approximately 50 mW/cm^2).

[3] = Razo cis-trans thermal conversion in the dark; settings: after long UV exposure, kept in the dark for 15 minutes
Procedure: as §1
After a long UV exposure to drive Razo to the cis dominated photostationary state, the sample was kept in the dark for 15 and 90 minutes.

With `C[N+]1(CCOc2ccc(/N=N/c3ccc(OCC[N+]4(C)CCCCC4)cc3)cc2)CCCCC1` [Razo] the “isomerization efficiency over repeated blue/UV cycles” value [1] was “isomerization efficiency is maintained over 15 cycles”, the “amount of UV light necessary to drive Razo to the cis dominated photostationary state” value ([2]; 25 μM Razo in buffer (20 mM Tris-HCl, pH 7.4, 40 mM KCl), after long Blue exposure, UV 360 nm at 25% power (approximately 15 mW/cm^2)) was “roughly 10 seconds” and the “amount of Blue light necessary to drive Razo to the trans dominated photostationary state” value ([2]; 25 μM Razo in buffer, after long UV exposure, Blue 475 nm at 50% power (approximately 50 mW/cm^2)) was “roughly 10 seconds”. For the same molecule, the “relaxation of cis to trans in the dark” value [3] was “almost no relaxation of cis to trans”.
